Assay results published in patent US20250099448A1, “HETEROCYCLIC COMPOUNDS” (Hoffmann-La Roche Inc., priority 2022, published 2025).

The compounds below were run against T1, MAGL protein (Homo sapiens, UniProt Q99685) (assay: 2-AG assay: MAGL inhibitory activity by hydrolysis of 2-arachidonoylglycerol to arachidonic acid, followed by mass spectrometry). Details: 8 μM 2-arachidonoylglycerol, 15 min preincubation, 30 min reaction at RT, RapidFire MS readout.
T1 sequence (Q99685 1-303): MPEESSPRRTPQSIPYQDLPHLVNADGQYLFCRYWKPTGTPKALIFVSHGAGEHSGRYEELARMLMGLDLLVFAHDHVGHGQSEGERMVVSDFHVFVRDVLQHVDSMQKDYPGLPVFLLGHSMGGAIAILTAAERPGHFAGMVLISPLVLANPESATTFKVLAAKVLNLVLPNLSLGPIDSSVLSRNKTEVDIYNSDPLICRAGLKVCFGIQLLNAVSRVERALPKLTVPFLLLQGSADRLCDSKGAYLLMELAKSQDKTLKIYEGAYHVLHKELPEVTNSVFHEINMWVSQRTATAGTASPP
Format: biochemical
How it was run: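 MAGL was preincubated 15 min at RT with compound (12.5 to […], 3-fold steps) in 50 mM TRIS, 1 mM EDTA, 0.01% Tween-20, 2.5% DMSO. The reaction ran 30 min at RT with 8 μM 2-AG. Arachidonic acid was quantified by RapidFire SPE-MS/MS against a d8-arachidonic acid internal standard.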

Point of comparison: O=C(N1CC2(CC(Cc3cnn(C(F)(F)F)c3)C2)C1)N1CC2(CC(c3nc(C4(O)CC4)n[nH]3)C2)C1 [compound 727], IC50 2.68 nM. Against it:
- CS(=O)(=O)c1ccccc1COC1CN(C(=O)N2CC3(CC(c4nnc(C5CC5)[nH]4)C3)C2)C1 [compound 335] — 170-fold higher, 467 nM
- Cc1cc(C2CC2)n(C23CC(C4CN(C(=O)N5CC6(CC(c7nc(C8CC8)n[nH]7)C6)C5)C4)(C2)C3)n1 [compound 587] — within 1.5-fold, 2.4 nM
- O=C(N1CC(c2ccc(C3(C(=O)O)CC3)cc2)C1)N1CC2(CC(c3nnc(C4CC4)[nH]3)C2)C1 [Example 392, 1-[4 [1-[6-(5-cyclopropyl-4H-1,2,4-triazol-3-yl)-2-azaspiro[3.3]heptane-2-carbonyl]azetidin-3-yl]phenyl]cyclopropanecarboxylic Acid] — 2.5-fold higher, 6.59 nM
- O=C(N1CC2(CC(Cc3n[nH]cc3C(F)(F)F)C2)C1)N1CC2(CC(c3nc(C4CC4)n[nH]3)C2)C1 [compound 747] — 30-fold lower, 0.09 nM
- Cn1ncc(CC2CC3(C2)CN(C(=O)N2CC4(CC(c5nc(C6CC(F)(F)C6)n[nH]5)C4)C2)C3)c1C(F)(F)F [compound 530] — 5.2-fold higher, 13.9 nM
- O=C(N1CC2(CC(Cc3ccc(C(F)(F)F)nc3)C2)C1)N1CC2(CC(c3nnc(C4(O)CC4)[nH]3)C2)C1 [compound 6] — 2.3-fold lower, 1.15 nM
- O=C(N1CC2(CC(c3nc(C4CC(F)(F)C4)n[nH]3)C2)C1)N1CC2(CN(Cc3ncc(C(F)(F)F)s3)C2)C1 [compound 596] — 130-fold higher, 357 nM
- O=C(N1CC(OCc2ccc(F)cc2Cl)C1)N1CC2(CC(c3nnc(C4CC4)[nH]3)C2)C1 [compound 320] — 3.1-fold higher, 8.28 nM
- O=C(N1CC(C23CC(Cc4ccc(C(F)(F)F)cc4F)(C2)C3)C1)N1CC2(CC(c3nc(C4(O)CC4)n[nH]3)C2)C1 [compound 438] — within 1.5-fold, 3.46 nM
- N#Cc1cccn(CC2CC3(C2)CN(C(=O)N2CC4(CC(c5nc(C6CC6)n[nH]5)C4)C2)C3)c1=O [compound 510] — 7.6-fold higher, 20.4 nM
- O=C(N1CC2(CC(Oc3ccc(C(F)(F)F)nc3)C2)C1)N1CC2(CC(c3nnc(C4(O)CC4)[nH]3)C2)C1 [compound 132] — 2.2-fold higher, 5.98 nM
- O=C(N1CC2(CC(c3nc(C4CC4)n[nH]3)C2)C1)N1CC2(CN(Cc3cc[nH]n3)C2)C1 [compound 799] — 500-fold higher, 1330 nM
- N=S(=O)(c1cccc(CC2CC3(C2)CN(C(=O)N2CC4(CC(c5nc(C6CC(F)(F)C6)n[nH]5)C4)C2)C3)c1)C(F)(F)F (centres unmarked) [compound 657] — 6.4-fold higher, 17.2 nM
- O=C(N1CC2(CC(c3nnc(C4CC4)[nH]3)C2)C1)N1CC2(CN(Cc3ccc(F)cc3C(F)(F)F)C2)C1 [compound 169] — 4.3-fold lower, 0.62 nM
- N#Cc1cnn(CC2CC3(C2)CN(C(=O)N2CC4(CC(c5nc(C6CC6)n[nH]5)C4)C2)C3)c1 [compound 801] — 3-fold higher, 8.16 nM
- CS(=O)(=O)c1ccc(COC2CCN(C(=O)N3CC4(CC(c5nc(C6(O)CC6)n[nH]5)C4)C3)CC2)c(Cl)c1 [Example 918, [4-(2-chloro-4-mesyl-benzyl)oxypiperidino]-[6-[3-(1-hydroxycyclopropyl)-1H-1,2,4-triazol-5-yl]-2-azaspiro[3.3]heptan-2-yl]methanone] — 360-fold higher, 964 nM
- O=C(N1CC2(CC(Cc3ccc(C(F)(F)F)nn3)C2)C1)N1CC2(CC(c3nnc(C4(O)CC4)[nH]3)C2)C1 [compound 23] — 1.7-fold higher, 4.43 nM
- O=C(N1CC2(CCN(Cc3cc(C(F)(F)F)[nH]n3)CC2)C1)N1CC2(CC(c3nc(C4CC4)n[nH]3)C2)C1 [compound 525] — 2.6-fold higher, 7.08 nM
- O=C(N1CC2(CC(Cn3cc(C(F)(F)F)cn3)C2)C1)N1CC2(CC(c3nc(C4(O)CC4)n[nH]3)C2)C1 [compound 671] — 2.1-fold higher, 5.55 nM
- CC(C)(C)c1c[nH]c(CN2CC3(C2)CN(C(=O)N2CC4(CC(c5nc(C6CC6)n[nH]5)C4)C2)C3)n1 [compound 659] — 15-fold higher, 40.9 nM
- CCn1nc(C(F)(F)F)cc1CN1CC2(C1)CN(C(=O)N1CC3(CC(c4nc(C5CC5)n[nH]4)C3)C1)C2 [compound 553] — 1.7-fold higher, 4.55 nM
- O=C(N1CC(C23CC(c4nnc(C5(C(F)(F)F)CC5)o4)(C2)C3)C1)N1CC2(CC(c3nc(C4CC4)n[nH]3)C2)C1 [compound 422] — 5.3-fold higher, 14.3 nM
- O=C(N1CC(c2ccc(N3CCC(O)(C(F)(F)F)C3)nc2)C1)N1CC2(CC(c3nnc(C4CC4)[nH]3)C2)C1 (centres unmarked) [compound 269] — within 1.5-fold, 2.29 nM
- O=C(N1CC2(CC(c3nnc(C4CC4)[nH]3)C2)C1)N1CC(O)(c2ccc(N3CC(C(F)(F)F)C3)cc2)C1 [Example 306, [6-(5-Cyclopropyl-4H-1,2,4-triazol-3 yl)-2-azaspiro[3.3]heptan-2-yl]-[3-hydroxy-3-[4-[3-(trifluoromethyl)azetidin-1-yl]phenyl]azetidin-1 yl)methanone] — within 1.5-fold, 2.19 nM
- O=C(N1CC2(CC(Cn3cc(C(F)(F)F)ncc3=O)C2)C1)N1CC2(CC(c3nc(C4CC4)n[nH]3)C2)C1 [compound 960] — 1.9-fold higher, 5.16 nM
- O=C(N1CC2(CC(Cc3cnc(C(F)(F)F)cn3)C2)C1)N1CC2(CC(c3nc(C(F)(F)F)n[nH]3)C2)C1 [compound 788] — 8.4-fold higher, 22.5 nM
- O=C(N1CC2(CC(c3nc(C4CC4)n[nH]3)C2)C1)N1CC2(CN(Cc3ccn(CC(F)(F)F)c(=O)c3)C2)C1 [compound 426] — 100-fold higher, 274 nM
- O=C(N1CC(NS(=O)(=O)c2ccc(C(F)(F)F)cc2F)C1)N1CC2(CC(c3nnc(C4CC4)[nH]3)C2)C1 [compound 203] — 140-fold higher, 363 nM
- O=C(N1CC(C23CC(c4ccc(S(=O)(=O)C(F)(F)F)cc4)(C2)C3)C1)N1CC2(CC(c3nc(C4(O)CC4)n[nH]3)C2)C1 [compound 419] — 5.4-fold lower, 0.5 nM
- O=C(N1CC(c2ccc(CC(F)(F)F)cc2)C1)N1CC2(CC(c3nnc(C4(O)CC4)[nH]3)C2)C1 [compound 244] — 3-fold higher, 7.96 nM
- N=S(=O)(c1cccc(CC2CC3(C2)CN(C(=O)N2CC4(CC(c5nc(C6CC(F)(F)C6)n[nH]5)C4)C2)C3)c1)C(F)(F)F (centres unmarked) [compound 668] — 3.6-fold higher, 9.75 nM
- COC(=O)c1cc(CC2CC3(C2)CN(C(=O)N2CC4(CC(c5nc(C6CC6)n[nH]5)C4)C2)C3)ccc1OC(F)(F)F [compound 912] — 38-fold lower, 0.07 nM
- O=C(N1CC2(CCC(Cc3ncc(F)cc3F)C2)C1)N1CC2(CC(c3nnc(C4CC4)[nH]3)C2)C1 (single isomer, unassigned) [compound 149] — 6.9-fold lower, 0.39 nM
- Cc1nc(C)c(CN2CC3(C2)CN(C(=O)N2CC4(CC(c5nnc(C6CC6)[nH]5)C4)C2)C3)s1 [compound 877] — 5.7-fold higher, 15.2 nM
- N#Cc1cc(CC2CC3(C2)CN(C(=O)N2CC4(CC(c5nnc(C6CC6)[nH]5)C4)C2)C3)ccc1C(F)(F)F [compound 26] — 130-fold lower, 0.02 nM
- O=C(N1CC2(CC(c3nc(C4(O)CC4)n[nH]3)C2)C1)N1CC2(CCN(Cc3ccc(S(=O)(=O)C(F)(F)F)cc3)C2)C1 [compound 714] — 11-fold higher, 30 nM
- N=S(=O)(c1ccc(CC2CC3(C2)CN(C(=O)N2CC4(CC(c5nc(C6CC(F)(F)C6)n[nH]5)C4)C2)C3)cc1)C(F)(F)F (centres unmarked) [compound 687] — 20-fold higher, 54.1 nM
- O=C(N1CC(c2ccc(C3(C(F)(F)F)CC3)cn2)C1)N1CC2(CC(c3nc(C4(O)CC4)n[nH]3)C2)C1 [compound 471] — 7.6-fold higher, 20.3 nM
- Cc1sc(CN2CC3(C2)CN(C(=O)N2CC4(CC(c5nc(C6CC6)n[nH]5)C4)C2)C3)nc1C(F)(F)F [compound 458] — 8.5-fold higher, 22.8 nM
- O=C(N1CC2(CCC(Cc3ncc(F)cc3F)C2)C1)N1CC2(CC(c3nnc(C4CC4)[nH]3)C2)C1 (centres unmarked) [compound 147] — 9.2-fold lower, 0.29 nM
- O=C(N1CC2(CC(Cc3c[nH]c(=O)c(C(F)F)c3)C2)C1)N1CC2(CC(c3nc(C4CC4)n[nH]3)C2)C1 [compound 954] — 1.9-fold lower, 1.42 nM
- O=C(N1CC2(CC(c3nnc(C4CC4)[nH]3)C2)C1)N1CC2(C1)CN(S(=O)(=O)c1ccc(F)cc1C(F)(F)F)C2 [compound 98] — within 1.5-fold, 1.92 nM
- O=C(N1CC(OCc2ccc(C(F)(F)F)nc2)C1)N1CC2(CC(c3nnc(C4CC4)[nH]3)C2)C1 [compound 332] — 59-fold higher, 159 nM
- O=C(N1CC2(CC(c3nc(C4CC4)n[nH]3)C2)C1)N1CC2(CN(Cc3cc(C(F)(F)F)[nH]n3)C2)C1 [compound 625] — 3.3-fold higher, 8.75 nM
- N#Cc1cc(CC2CC3(C2)CN(C(=O)N2CC4(CC(c5nnc(C6(O)CC6)[nH]5)C4)C2)C3)cnc1C(F)(F)F [compound 606] — 1.9-fold higher, 5.17 nM
- O=C(N1CC2(CC(c3nc(C4CC4)n[nH]3)C2)C1)N1CC2(CN(Cc3cc(C(F)(F)F)sn3)C2)C1 [compound 675] — 3.3-fold higher, 8.76 nM
- O=C(N1CC2(CC(c3nc(C4CC(F)(F)C4)n[nH]3)C2)C1)N1CC2(CN(Cc3sncc3C(F)(F)F)C2)C1 [compound 655] — 210-fold higher, 557 nM
- Cn1cnc(C#N)c1CN1CC2(C1)CN(C(=O)N1CC3(CC(c4nc(C5CC5)n[nH]4)C3)C1)C2 [compound 537] — 88-fold higher, 237 nM
- Cc1nn(CC(F)(F)F)cc1CN1CC2(C1)CN(C(=O)N1CC3(CC(c4nc(C5CC5)n[nH]4)C3)C1)C2 [compound 440] — 41-fold higher, 109 nM
- CS(=O)(=O)c1cc(CC2CC3(C2)CN(C(=O)N2CC4(CC(c5ncn[nH]5)C4)C2)C3)ccc1C(F)(F)F [compound 753] — 560-fold higher, 1490 nM
- N#Cc1cc(CC2CC3(C2)CN(C(=O)N2CC4(CC(c5nc(C6(F)CC6)n[nH]5)C4)C2)C3)cc(C(F)(F)F)c1 [compound 464] — 38-fold lower, 0.07 nM
- Cc1cc(C2CC2)n(C23CC(C4CN(C(=O)N5CC6(CC(c7nc(C8(O)CC8)n[nH]7)C6)C5)C4)(C2)C3)n1 [compound 588] — 15-fold higher, 40.4 nM
- O=C(N1CC2(CC(Cc3cn[nH]c3C(F)(F)F)C2)C1)N1CC2(CC(c3nc(C4CC4)n[nH]3)C2)C1 [compound 607] — 34-fold lower, 0.08 nM
- Cn1cc(OC2CC3(C2)CN(C(=O)N2CC4(CC(c5nc(C6CC6)n[nH]5)C4)C2)C3)c(C(F)(F)F)n1 [compound 425] — within 1.5-fold, 2.22 nM
- O=C(N1CC(Oc2ccc(C3CC3)cc2F)C1)N1CC2(CC(c3nnc(C4(O)CC4)[nH]3)C2)C1 [compound 313] — 1.7-fold higher, 4.59 nM
